Measurements as given in ChEMBL document CHEMBL5375977, “Discovery of a First-in-Class GPR183 Antagonist for the Potential Treatment of Rheumatoid Arthritis” (J Med Chem, 2023).
In brackets after ≈: the same amount, converted by molar mass. One block for each compound: values may come before it.

Assays:
[1] = Oral bioavailability in ICR mouse at 10 mg/kg measured upto 24 hrs; type: ADME, organism-based; conditions: in vivo
[2] = Cmax in ICR mouse at 1 mg/kg,iv measured upto 24 hrs; type: ADME, organism-based; design: time < 24 hrs, dose 1 mg/kg, route iv; conditions: in vivo
[3] = Half life in ICR mouse at 1 mg/kg,iv measured upto 24 hrs; type: ADME, organism-based; conditions: in vivo
[4] = Tmax in ICR mouse at 10 mg/kg,po measured upto 24 hrs; type: ADME, organism-based; conditions: in vivo
[5] = Cmax in ICR mouse at 10 mg/kg,po measured upto 24 hrs; type: ADME, organism-based; design: time < 24 hrs, dose 10 mg/kg, route po; conditions: in vivo
[6] = AUClast in ICR mouse at 10 mg/kg,po measured upto 24 hrs; type: ADME, organism-based; design: time < 24 hrs, dose 10 mg/kg, route po; conditions: in vivo
[7] = AUClast in ICR mouse at 1 mg/kg,iv measured upto 24 hrs; type: ADME, organism-based; design: dose 1 mg/kg, time < 24 hrs, route iv; conditions: in vivo
[8] = Volume of distribution at steady state in ICR mouse at 1 mg/kg,iv measured upto 24 hrs; type: ADME, organism-based; conditions: in vivo, read-out: Vdss
[9] = Clearance in ICR mouse at 1 mg/kg,iv measured upto 24 hrs; type: ADME, organism-based; conditions: in vivo
[10] = Half life in ICR mouse at 10 mg/kg,po measured upto 24 hrs; type: ADME, organism-based; conditions: in vivo
[11] = Aqueous solubility of compound in FaSSIF at pH 6.28; type: physicochemical
[12] = Half life in monkey liver microsomes; type: ADME, Macaca mulatta, Microsome; conditions: rhesus monkey
[13] = Apparent permeability across apical to basolateral side in human Caco-2 cells; type: ADME, cell-based
[14] = Oral bioavailability in rat at 10 mg/kg measured upto 24 hrs; type: ADME, organism-based; conditions: in vivo
[15] = Half life in dog liver microsomes; type: ADME, Canis lupus familiaris, Microsome
[16] = Half life in mouse Hepatocyte; type: ADME, cell-based; conditions: hepatocytes
[17] = Half life in rat liver microsomes; type: ADME, Microsome
[18] = Oral bioavailability in dog at 10 mg/kg measured upto 24 hrs; type: ADME, organism-based, Canis lupus familiaris; conditions: in vivo
[19] = Half life in human liver microsomes; type: ADME, Microsome
[20] = Aqueous solubility of compound in FeSSIF at pH 4.83; type: physicochemical
[21] = Drug distribution in C57BL/6 mouse plasma at po administration; type: ADME, organism-based; conditions: in vivo
[22] = Cmax in C57BL/6 mouse at 1 mg/kg,po measured upto 24 hrs; type: ADME, organism-based; design: dose 1 mg/kg, time < 24 hrs, route po; conditions: in vivo
[23] = Apparent permeability across basolateral to apical side in human Caco-2 cells; type: ADME, cell-based
[24] = Half life in mouse liver microsomes; type: ADME, Microsome
[25] = Aqueous solubility of compound in SGF at pH 2.26; type: physicochemical

bioavailability [1]: 116%
Cmax [2]: 1000 ng/mL
half-life [3]: 0.42 h
Tmax [4]: 0.25 h
Cmax [5]: 4900 ng/mL
AUC(0-t) at 24 h [6]: 6840 ng·h/mL
AUC(0-t) at 24 h [7]: 586 ng·h/mL
Vd [8]: 0.94 L/kg
clearance [9]: 27.9 mL/min/kg
half-life [10]: 1.43 h
Compound: O=C(/C=C/c1ccc2c(c1)OC(F)(F)O2)N1CCN(C(=O)N2CCC2)CC1

Compound: COc1ncc(C(=O)N2CCN(C(=O)/C=C/c3ccc4c(c3)OC(F)(F)O4)CC2)cn1
solubility [11]: 40 µM (≈ 17.3 µg/mL)
half-life [12]: > 3.11 h
Papp A→B [13]: 19.6 ×10⁻⁶ cm/s
bioavailability [14]: > 100%
half-life [15]: > 3.11 h
half-life [16]: 22.2 h
half-life [17]: > 3.11 h
bioavailability [18]: > 100%
half-life [19]: > 3.11 h
solubility [20]: 134 µM (≈ 57.9 µg/mL)
Drug uptake [21]: Dose-Dependent Effect
Tmax [4]: 1.33 h
Cmax [5]: 5900 ng/mL
Cmax [22]: 878 ng/mL
AUC(0-t) at 24 h [6]: 49700 ng·h/mL
Papp B→A [23]: 16 ×10⁻⁶ cm/s
AUC(0-t) at 24 h [7]: 4190 ng·h/mL
clearance [9]: 3.98 mL/min/kg
half-life [24]: > 3.11 h
solubility [25]: 63 µM (≈ 27.2 µg/mL)
